Key:
Z-138 cells = test: Z-138 cell growth inhibition test (CellTiter-Glo, 5 days); format: cell-based; conditions: Homo sapiens, incubated 5 days (120 h)
Procedure: The cells were routinely subcultured. After approximately two passages, well-growing cell strains were selected for plating.
• I. The suspension was removed from the incubator, transferred into a 50 mL centrifuge tube, and then centrifuged at 800-1000 rpm for 3-5 min, and the supernatant was discarded. An appropriate volume of culture medium was added to the centrifuge tube, and the cells were gently pipetted to ensure a uniform suspension. Cell counting was performed using the Vi-Cell XR cell counter. • II. Based on the measured cell density, the cell suspension was adjusted to an appropriate concentration. • III. The cell suspension was added to a 384-well plate at a volume of 40 µL/well, with 700 cells/well. For blank control wells, an equal volume of cell-free culture medium was added instead.
• I. The compound was dissolved in 100% DMSO to prepare a 10 mM stock solution. • II. […]
The assay was performed according to the instructions of the Promega CellTiter-Glo luminescent cell viability assay kit (Promega-G7573): • I. The CellTiter-Glo buffer was thawed and let stand at room temperature. • II. […] The luminescence signals were detected on 2104 EnVision plate reader. […]
The dose-response inhibition curve was plotted using XLFit, and IC50 values were calculated using the four-parameter logistic model: [fit = (A + ((B - A)/(1 + ((C/x) ^ D))))].

[1] = tested on: human origin B-cell non-Hodgkin's lymphoma Z-138 cell strain; test: Subcutaneous Z-138 xenograft in mice; format: in vivo; conditions: subcutaneous xenograft in female NOD/SCID mice
PRMT5 = molecular target: T1, PRMT5 (Homo sapiens, UniProt O14744); test: PRMT5 enzymatic activity inhibition test ([3H]-SAM FlashPlate); format: biochemical; conditions: for IC50: 5 nM PRMT5, 0.3 µM [3H]-SAM, 100 nM polypeptide substrate
T1 construct: purchased Active Motif 31921
T1 sequence (O14744 whole entry): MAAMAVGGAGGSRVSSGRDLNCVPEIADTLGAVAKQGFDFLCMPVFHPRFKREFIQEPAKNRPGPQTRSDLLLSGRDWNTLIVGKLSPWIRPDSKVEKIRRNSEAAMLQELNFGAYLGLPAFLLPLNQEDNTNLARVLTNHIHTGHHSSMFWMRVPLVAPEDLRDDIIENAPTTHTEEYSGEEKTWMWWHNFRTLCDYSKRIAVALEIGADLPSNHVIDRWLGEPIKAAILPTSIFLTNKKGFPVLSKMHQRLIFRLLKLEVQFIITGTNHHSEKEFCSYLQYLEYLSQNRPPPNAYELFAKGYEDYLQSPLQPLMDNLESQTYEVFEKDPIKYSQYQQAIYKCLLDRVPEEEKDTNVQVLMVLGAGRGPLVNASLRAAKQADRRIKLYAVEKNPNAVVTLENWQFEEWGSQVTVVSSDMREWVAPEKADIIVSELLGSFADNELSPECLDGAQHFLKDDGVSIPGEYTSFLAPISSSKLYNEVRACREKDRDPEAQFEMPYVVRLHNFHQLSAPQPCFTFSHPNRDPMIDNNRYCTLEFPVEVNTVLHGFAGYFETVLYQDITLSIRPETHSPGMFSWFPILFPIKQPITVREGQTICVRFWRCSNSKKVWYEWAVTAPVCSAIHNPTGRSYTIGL
T1 sequence (Q9BQA1 whole entry partner): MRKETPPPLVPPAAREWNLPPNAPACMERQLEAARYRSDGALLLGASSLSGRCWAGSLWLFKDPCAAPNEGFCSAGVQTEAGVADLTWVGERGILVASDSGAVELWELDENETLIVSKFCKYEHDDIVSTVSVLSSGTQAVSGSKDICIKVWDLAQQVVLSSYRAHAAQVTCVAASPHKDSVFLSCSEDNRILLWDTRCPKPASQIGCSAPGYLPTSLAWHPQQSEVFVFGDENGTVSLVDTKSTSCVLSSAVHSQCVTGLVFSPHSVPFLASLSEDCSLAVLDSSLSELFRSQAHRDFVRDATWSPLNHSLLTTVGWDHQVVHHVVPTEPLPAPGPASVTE
Procedure: A 1× enzyme reaction buffer was prepared using 10 mM Tris 8.0 (Sigma, Cat. No. T2694-1L), 0.01% Tween-20 (Sigma, Cat. No. P2287-100ML), and 1 mM DTT (Sigma, Cat. No. D0632-10G). […] Subsequently, the concentration (X) and corresponding inhibition rate (Inh%) (Y) were input into EXCEL. The XLFit plug-in was then used to fit the data using the built-in four-parameter logistic equation: Y = Bottom + (Top - Bottom)/(1 + (IC50/X) […]). The IC50 (half-maximal inhibitory concentration) value for each compound was then calculated.

IC50 (PRMT5) | inhibitory activity against the enzymatic activity (PRMT5; in vitro, statement in words) | Structure (SMILES) | IC50 (Z-138 cells) | tumor inhibition effects [1]
6.4 nM | strong inhibitory effects | CC(C)Oc1nc(NC2CCN(C(=O)c3ccccc3)CC2)cc(C(=O)N2CC[C@@H](N3CCc4ccccc4C3)[C@H](O)C2)n1 [Example 1, (6-((1-benzoylpiperidin-4-yl)amino)-2-isopropoxypyrimidin-4-yl)((3R,4R)-4-(3,4-dihydroisoquinolin-2(1H)-yl)-3-hydroxypiperidin-1-yl)methanone] | 46.6 nM | excellent tumor inhibition effects
115 nM |  | CC(=O)N1CCC(Nc2cc(C(=O)N3CCC(N4CCc5ccccc5C4)CC3)nc(C)n2)CC1 [reference compound, reference compound] | 2710 nM | 
